Data published in US4605744A, “Imidazole derivatives” (Hoffmann-La Roche Inc., priority 1985, dated 1986).
≈ marks a conversion by molar mass, not a printed value. Where “and” joins values, the source holds several entries; their conditions need not be identical. Identical values can stand only once. Counter-ions that a name gives are not always drawn. Like-named read-outs stand apart in the source and are kept apart here.

Legend:
S. aureus Smith [1] = assay: In vivo antibacterial activity (PD50); conditions: Staphylococcus aureus, sc
E. cloacae 6951 [2] = assay: In vivo antibacterial activity (PD50); conditions: Enterobacter cloacae, 6951, sc, 2 treatments
Experimental: (§2) The results in these Tables and the PD50 's were determined by the procedure set forth on page 160 in Beskid et al., Antimicrobial Agents and Chemotherapy, Vol. 20, No. 2 pp. 159-167 (Aug. 1981) for "in vivo studies".

P. aeruginosa 6799 = assay: In vivo antibacterial activity (PD50); conditions: Pseudomonas aeruginosa, 6799, sc, sc, 2 treatments, read-out: PD50
Experimental: as §2

P. aeruginosa 6148B = assay: In vivo antibacterial activity (PD50); conditions: Pseudomonas aeruginosa, sc
Experimental: as §2

S. marcescens SM [3] = assay: In vivo antibacterial activity (PD50); conditions: sc
Experimental: as §2

E. aerogenes 8 [4] = assay: In vivo antibacterial activity (PD50)
Experimental: as §2

P. aeruginosa 6720 = assay: In vivo antibacterial activity (PD50); conditions: Pseudomonas aeruginosa, 6720, sc, 2 treatments
Experimental: as §2

E. coli 5152 = assay: In vivo antibacterial activity (PD50); conditions: Escherichia coli, 5152, sc
P. aeruginosa 6719 = assay: In vivo antibacterial activity (PD50); conditions: Pseudomonas aeruginosa, 6719, sc
Experimental: as §2

E. coli 257 = assay: In vitro antibacterial activity (MIC, Mueller-Hinton broth); format: cell-based
Outline: (§1)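 Broth microdilution in Mueller-Hinton broth, drug range 128 to 0.008 μg/ml. Each well received 1.5 μl of a 10^-2 dilution of an overnight culture; sealed trays were incubated overnight at 37° C. MIC = lowest concentration with no visible growth.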

P. aeruginosa 8710 = assay: In vivo antibacterial activity (PD50); conditions: Pseudomonas aeruginosa, 8710, sc, 2 treatments
Experimental: as §2

P. aeruginosa 503-56 [5] = assay: In vivo antibacterial activity (PD50); conditions: Pseudomonas aeruginosa, 50356, sc
S. faecalis C1 = assay: In vivo antibacterial activity (PD50); conditions: sc
Experimental: as §2

K. pneumoniae HE7 = assay: In vitro antibacterial activity (MIC); format: cell-based; conditions: Klebsiella pneumoniae
Outline: as §1

P. aeruginosa Stone 130 = assay: In vitro antibacterial activity (MIC); format: cell-based
Outline: as §1

P. aeruginosa 503-56 [6] = assay: In vitro antibacterial activity (MIC); format: cell-based
Outline: as §1

E. aerogenes 8 [7] = assay: In vitro antibacterial activity (MIC); format: cell-based
Outline: as §1

P. rettgeri ATCC 9250 = assay: In vitro antibacterial activity (MIC); format: cell-based; conditions: Providencia rettgeri
Outline: as §1

P. aeruginosa POW 151 = assay: In vitro antibacterial activity (MIC); format: cell-based; conditions: Pseudomonas aeruginosa, POW151
Outline: as §1

P. mirabilis 2 = assay: In vitro antibacterial activity (MIC); format: cell-based
Outline: as §1

S. marcescens SM [8] = assay: In vitro antibacterial activity (MIC); format: cell-based; conditions: Serratia marcescens
Outline: as §1

E. cloacae 24 = assay: In vitro antibacterial activity (MIC); format: cell-based
Outline: as §1

S. aureus 1059B = assay: In vitro antibacterial activity (MIC); format: cell-based; conditions: Staphylococcus aureus
Outline: as §1

S. aureus Smith [9] = assay: In vitro antibacterial activity (MIC); format: cell-based
Outline: as §1

P. aeruginosa B = assay: In vitro antibacterial activity (MIC); format: cell-based; conditions: Pseudomonas aeruginosa, read-out: MIC
Outline: as §1

P. aeruginosa 5712 = assay: In vitro antibacterial activity (MIC); format: cell-based; conditions: Pseudomonas aeruginosa
Outline: as §1

P. mirabilis 503-1136 = assay: In vitro antibacterial activity (MIC); format: cell-based; conditions: Proteus mirabilis, 5031136, P. mirabilis 503-1136; read-out: MIC
Outline: as §1

S. marcescens 5805 = assay: In vitro antibacterial activity (MIC); format: cell-based; conditions: Serratia marcescens, 5805, S. marcescens 5805; read-out: MIC
Outline: as §1

K. pneumoniae 8357 = assay: In vitro antibacterial activity (MIC); format: cell-based; conditions: Klebsiella pneumoniae, 8357, K. pneumoniae 8357; read-out: MIC
Outline: as §1

E. cloacae 6951 [10] = assay: In vitro antibacterial activity (MIC); format: cell-based; conditions: Enterobacter cloacae, 6951, E. cloacae 6951; read-out: MIC
Outline: as §1

K. pneumoniae 503-994 = assay: In vitro antibacterial activity (MIC); format: cell-based; conditions: Klebsiella pneumoniae, 503994, K. pneumoniae 503-994; read-out: MIC
Outline: as §1

P. vulgaris ATCC 6380 = assay: In vitro antibacterial activity (MIC); format: cell-based; conditions: Proteus vulgaris, ATCC6380, P. vulgaris ATCC 6380; read-out: MIC
Outline: as §1

S. typhi P58A = assay: In vitro antibacterial activity (MIC); format: cell-based; conditions: Salmonella enterica, TYPHI
Outline: as §1

K. pneumoniae A = assay: In vitro antibacterial activity (MIC); format: cell-based; conditions: Klebsiella pneumoniae, K. pneumoniae A; read-out: MIC
Outline: as §1

[11] = challenge 48 LD50s, 2 treatments, Table 10
[12] = challenge 100 LD50s, 2 treatments, Table 10
[13] = challenge 2717 LD50s, 2 treatments, Table 10
[14] = challenge 10 LD50s, Table 10, read-out: PD50
[15] = challenge 562 LD50s, Table 10, read-out: PD50
[16] = challenge 4.7 LD50s, 2 treatments, Table 10
[17] = K. pneumoniae HE7, read-out: MIC
[18] = Klebsiella aerogenes, E. aerogenes 8, read-out: MIC

With `CC1(C)S[C@@H]2[C@H](/N=C/N3CCCCCC3)C(=O)N2[C@H]1C(=O)O` [Amdinocillin, amdinocillin, reference compound] the ED50 (S. aureus Smith [1]; Table 9) was 69 mg/kg, the ED50 (S. aureus Smith [1]; [11]) was 22 mg/kg and the ED50 (S. aureus Smith [1]; challenge 70 LD50s, 2 treatments, Table 11) was 13 mg/kg. For the same compound, the ED50 (S. aureus Smith [1]; [12]) was 12 mg/kg, the ED50 (E. cloacae 6951 [2]; challenge 562 LD50s, Table 10) was 18 mg/kg and the ED50 (E. cloacae 6951 [2]; challenge 3162 LD50s, Table 11) was 2.5 mg/kg. It also gave an ED50 (P. aeruginosa 6799; challenge 48 LD50s, Table 10) of 117 mg/kg, an ED50 (P. aeruginosa 6799; challenge 71 LD50s, Table 11) of over 250 mg/kg and an ED50 (P. aeruginosa 6148B; challenge 32 LD50s, 2 treatments, Table 11) of over 250 mg/kg. The ED50 (S. marcescens SM [3]; Serratia marcescens, Table 9) was over 250 mg/kg, the PD50 (S. marcescens SM [3]; challenge 489 LD50s, 2 treatments, Table 11) was over 250 mg/kg and the ED50 (E. aerogenes 8 [4]; Klebsiella aerogenes, 8, sc, read-out: PD50, sc, challenge 10 LD50s, 2 treatments, Table 11) was 167 mg/kg. The ED50 (E. aerogenes 8 [4]; Klebsiella aerogenes, 8, sc, Table 9, read-out: PD50) was over 250 mg/kg, the ED50 (P. aeruginosa 6720; challenge 35 LD50s, Table 11) was over 250 mg/kg and the ED50 (P. aeruginosa 6720; challenge 3511 LD50s, Table 10) was over 250 mg/kg. For the same compound, the ED50 (E. coli 5152; Table 9) was over 250 mg/kg, the ED50 (E. coli 5152; [13]) was 84 mg/kg and the ED50 (E. coli 5152; challenge 4780 LD50s, 2 treatments, Table 11) was 150 mg/kg. It also gave an ED50 (P. aeruginosa 6719; challenge 2290 LD50s, 2 treatments, Table 11) of under 20 mg/kg, an MIC (E. coli 257; Escherichia coli, 257) of 0.125 µg/mL (≈ 0.384 µM) and an ED50 (P. aeruginosa 8710; [14]) of over 250 mg/kg. For the same compound, the ED50 (P. aeruginosa 8710; [15]) was over 250 mg/kg, the ED50 (P. aeruginosa 8710; challenge >10^4 LD50s, Table 11, read-out: PD50) was over 250 mg/kg and the ED50 (P. aeruginosa 503-56 [5]; Table 9) was over 250 mg/kg. The ED50 (P. aeruginosa 503-56 [5]; [16]) was over 250 mg/kg, the ED50 (P. aeruginosa 503-56 [5]; challenge 50 LD50s, 2 treatments, Table 11) was over 250 mg/kg and the ED50 (P. aeruginosa 503-56 [5]; [12]) was over 250 mg/kg. For the same compound, the ED50 (S. faecalis C1; Enterococcus faecalis, C1, Table 9) was over 250 mg/kg, the PD50 (S. faecalis C1; challenge 10 LD50s, 1 treatment, Table 11) was over 250 mg/kg and the MIC (K. pneumoniae HE7; HE7, K. pneumoniae HE7) was over 128 µg/mL. It also gave an MIC (K. pneumoniae HE7; [17]) of 64 µg/mL (≈ 197 µM), an MIC (P. aeruginosa Stone 130) of 128 µg/mL (≈ 393 µM) and an MIC (P. aeruginosa Stone 130; Pseudomonas aeruginosa, STONE130) of over 128 µg/mL. For the same compound, the MIC (P. aeruginosa 503-56 [6]; P. aeruginosa 503-56) was 128 µg/mL (≈ 393 µM), the MIC (P. aeruginosa 503-56 [6]; Pseudomonas aeruginosa, 50356, P. aeruginosa 503-56) was over 128 µg/mL and the MIC (E. aerogenes 8 [7]; Klebsiella aerogenes, 8, E. aerogenes 8) was 128 µg/mL (≈ 393 µM). It also gave an MIC (E. aerogenes 8 [7]; [18]) of 0.25 µg/mL (≈ 0.768 µM), an MIC (P. rettgeri ATCC 9250; ATCC9250) of 0.125 µg/mL (≈ 0.384 µM) and an MIC (P. aeruginosa POW 151) of over 128 µg/mL. For the same compound, the MIC (P. mirabilis 2; Proteus mirabilis, 2) was 0.125 µg/mL (≈ 0.384 µM), the MIC (S. marcescens SM [8]) was 0.125 µg/mL (≈ 0.384 µM) and the MIC (S. marcescens SM [8]; read-out: MIC) was 0.062 µg/mL (≈ 0.191 µM). For the same compound, the MIC (E. cloacae 24; Enterobacter cloacae, 24) was 0.125 µg/mL (≈ 0.384 µM), the MIC (S. aureus 1059B; 1059B) was 128 µg/mL (≈ 393 µM) and the MIC (S. aureus 1059B; read-out: MIC) was 64 µg/mL (≈ 197 µM). The MIC (S. aureus Smith [9]; S. aureus Smith) was 8 µg/mL and 16 µg/mL, the MIC (S. aureus Smith [9]; Staphylococcus aureus) was 16 µg/mL (≈ 49.2 µM) and the MIC (P. aeruginosa B) was 0.062 µg/mL (≈ 0.191 µM). The MIC (P. aeruginosa 5712; 5712) was over 128 µg/mL.

With `CC1(C)S[C@@H]2[C@H](N=CN3CCC(CC4=NCCN4)CC3)C(=O)N2[C@H]1C(=O)O` [M, [2S-(2alpha,5alpha,6beta)]-6-[[[4-[(4,5-dihydro-1H-imidazol-2-yl)methyl]-1-piperidinyl]methylene]amino]-3,3-dimethyl-7-oxo-4-thia-1-azabicyclo[3.2.0]heptane-2-carboxylic acid hydrochloride] the ED50 (S. aureus Smith [1]; [11]) was under 5 mg/kg, the ED50 (S. aureus Smith [1]; [12]) was 6.7 mg/kg and the ED50 (E. cloacae 6951 [2]; challenge 562 LD50s, Table 10) was 15 mg/kg. For the same compound, the ED50 (P. aeruginosa 6799; challenge 48 LD50s, Table 10) was over 250 mg/kg, the ED50 (P. aeruginosa 6148B; challenge 4.5 LD50s, 3 treatments, Table 10) was under 20 mg/kg and the ED50 (P. aeruginosa 6148B; challenge 33 LD50s, 3 treatments, Table 10) was under 20 mg/kg. For the same compound, the ED50 (E. aerogenes 8 [4]; Klebsiella aerogenes, 8, sc, read-out: PD50, sc, challenge 24 LD50s, 2 treatments, Table 10) was 60 mg/kg, the ED50 (P. aeruginosa 6720; challenge 3511 LD50s, Table 10) was 29 mg/kg and the ED50 (E. coli 5152; [13]) was 134 mg/kg. The ED50 (P. aeruginosa 6719; challenge 2249 LD50s, 3 treatments, Table 10) was 34 mg/kg, the MIC (E. coli 257; Escherichia coli, 257, E. coli 257, read-out: MIC) was 0.125 µg/mL and the ED50 (P. aeruginosa 8710; [14]) was 54 mg/kg. The ED50 (P. aeruginosa 8710; [15]) was 59 mg/kg, the ED50 (P. aeruginosa 503-56 [5]; [16]) was 67 mg/kg and the ED50 (P. aeruginosa 503-56 [5]; [12]) was 100 mg/kg. The MIC (K. pneumoniae HE7; [17]) was over 128 µg/mL, the MIC (P. aeruginosa Stone 130; Pseudomonas aeruginosa, STONE130, read-out: MIC) was over 128 µg/mL and the MIC (P. mirabilis 503-1136) was 8 µg/mL. For the same compound, the MIC (P. aeruginosa 503-56 [6]; Pseudomonas aeruginosa, 50356, P. aeruginosa 503-56, read-out: MIC) was 32 µg/mL, the MIC (S. marcescens 5805) was 1 µg/mL and the MIC (E. aerogenes 8 [7]; [18]) was 32 µg/mL. The MIC (K. pneumoniae 8357) was 1 µg/mL, the MIC (P. rettgeri ATCC 9250; ATCC9250, P. rettgeri ATCC 9250, read-out: MIC) was 0.5 µg/mL and the MIC (E. cloacae 6951 [10]) was 32 µg/mL. The MIC (P. aeruginosa POW 151) was over 128 µg/mL, the MIC (K. pneumoniae 503-994) was 0.25 µg/mL and the MIC (P. mirabilis 2; Proteus mirabilis, 2, P. mirabilis 2, read-out: MIC) was 0.5 µg/mL. It also gave an MIC (S. marcescens SM [8]; read-out: MIC) of 0.125 µg/mL, an MIC (E. cloacae 24; Enterobacter cloacae, 24, E. cloacae 24, read-out: MIC) of 0.5 µg/mL and an MIC (S. aureus 1059B; read-out: MIC) of 32 µg/mL. It also gave an MIC (S. aureus Smith [9]; Staphylococcus aureus, S. aureus Smith, read-out: MIC) of 4 µg/mL, an MIC (P. vulgaris ATCC 6380) of 0.25 µg/mL and an MIC (S. typhi P58A) of 0.062 µg/mL. It also gave an MIC (K. pneumoniae A) of 0.062 µg/mL, an MIC (P. aeruginosa B) of 0.25 µg/mL and an MIC (P. aeruginosa 5712; P. aeruginosa 5712, read-out: MIC) of 128 µg/mL.
